Experimental data published in patent US11541051B2, “Compositions and methods for treating CDK4/6-mediated cancer” (Icahn School of Medicine at Mount Sinai, priority 2016, dated 2023).
“Also recorded” adds a separate entry of the source.

Columns and labels:
Assay type in all cases: cell-based
[1] = tested on: CDK4/6; assay: Western blot of CDK4, CDK6 and phospho-Rb in A375 melanoma cells treated with degraders (Example 12, FIGS. 12, 13, 16, 18); conditions: 24 h
Protocol: (§1) Breast cancer cell lines (MCF7, T47D, and ZR-75-1) and melanoma cell lines (A375, SK-MEL-2, SK-MEL-30, and WM1382) were cultured in the presence of DMEM or RPMI supplemented with 10% FBS in the presence of penicillin and streptomycin.
(§2) Protein concentrations were determined by BCA from cell lysates and equal amounts of protein are loaded to a Bis-Tris 4-12% gel. Gels were run at 80 V for 4 h using 1× running buffer (25 mM Tris, pH 8.3, […] glycine, 0.1% SDS). Proteins were transferred to a nitrocellulose membrane for 2 h at 100 V using transfer buffer (25 mM Tris, pH 8.3, […] glycine, 20% methanol). Ponceau S staining (0.1% Ponceau S, 1% acetic acid) was used to confirm transfer of proteins to the membrane followed by blocking of the membrane for 30 min at room temperature using blocking buffer (5% dry nonfat milk, 0.1% Tween, 0.02% sodium azide in TBS). The blocked membrane is incubated with primary antibodies (1:1000 dilution) in blocking buffer at 4° C. overnight. When primary phosphor-antibodies were used, then the membrane is incubated with 5% BSA instead of milk. The membrane was washed three times, 10 min each, with wash buffer (0.1% Tween in TBS) followed by incubation with secondary HRP conjugated antibody (1:5000 dilution) in 2.5% dry nonfat milk, 0.1% Tween in TBS for 1 h at room temperature. The membrane was washed three times, 10 min each, with wash buffer (0.1% Tween in TBS). Membranes are incubated with ECL for 1 min and proteins are detected after exposure to a blue autoradiographic film.
A375 melanoma cells (FIG. 13) were treated with 1 or 3 μM Ribociclib (RB), YX030-126, YX030-108, YX030-107, YX030-086, YX030-085 or XY028-133 for 24 h, then lysed and immunoblotted with antibodies to CDK4, CDK6, cyclin A, PLK1, phospho-Rb (pRb), and actin.
A375 melanoma cells (FIG. 16, panel A) were treated with 0.3 or 1 μM XY028-140, YX039-65, YX039-48, YX039-123, YX039-56, YX039-124 or YX039-147 for 24 h. A375 melanoma cells were treated with 1 or 3 μM XY028-140, YX039-56, YX039-65 or XY028-133 (FIG. 16, panel B). Cells were lysed and immunoblotted with antibodies to phospho-Rb (pRb), total Rb, PLK1, cyclin A, CDK4, CDK6, and actin.
A375 melanoma cells (FIG. 18) were treated with 1 or 3 μM XY028-133, YX044-18, YX044-22, XY028-140, YX044-19 or YX044-38 for 24 h, then lysed and immunoblotted with antibodies to phospho-Rb (pRb), total Rb, PLK1, cyclin A, CDK4, CDK6, and actin.

[2] = target: T1, CDK4/6 (Homo sapiens, UniProt P11802); assay: Western blot of CDK4/6 and phospho-Rb in T47D breast cancer cells treated with degraders (Example 12, FIGS. 10 B, 17, 19); conditions: 24 h
T1 construct: endogenous in cells; host or cells: MCF7, T47D, ZR-75-1 (breast cancer); A375, SK-MEL-2, SK-MEL-30, WM1382 (melanoma)
Protocol: as §1, §2
(§3) MCF7 breast cancer cells were treated with 1 or 5 μM XY019-095, XY019-098, XY019-0100, XY019-105A, XY019-105B, XY019-106, or XY019-108 for 24 h, then lysed and immunoblotted with antibodies to CDK4, CDK6, and actin (FIG. 10, panel A). […] T47D breast cancer cells were treated with 0.1, 0.3, 1, 3, 10, or 30 μM XY019-106 for 24 h, then lysed and immunoblotted with antibodies to phospho-Rb (pRB), CDK4, and actin (FIG. 10, panel B).
(§4) T47D breast cancer cells (FIG. 17) were treated with 0.3 or 1 μM XY028-140, YX039-48, YX039-123, YX039-56, YX039-124, YX039-65, YX039-147 or YX039-74 for 24 h, then lysed and immunoblotted with antibodies to phospho-Rb (pRb), total Rb, PLK1, cyclin A, CDK4, CDK6, and actin.
(§5) T47D breast cancer cells (FIG. 19) were treated with 0.3 or 1 μM XY028-133, YX044-18, YX044-22, XY028-140, YX044-19 or YX044-38 for 24 h, then lysed and immunoblotted with antibodies to phospho-Rb (pRb), total Rb, PLK1, cyclin A, CDK4, CDK6, and actin.

[3] = tested on: CDK4/6; assay: as above; conditions: concentrations as high as 30 μM, 24 h
Protocol: as §1, §2, §3, §4, §5

[4] = tested on: CDK4/6; assay: Characterization of CDK4/6 degraders/disruptors in various breast cancer and melanoma cells (summary, Examples 12 and 13)
Protocol: Specific exemplary abemaciclib-, ribociclib-, and palbociclib-based CDK4/6 degraders/disruptors were characterized in various different breast cancer and melanoma cells (Examples 12 and 13, FIGS. 10-23). […] This efficacy in suppressing CDK4/6 expression and CDK4/6 activity correlated with efficacy in inhibiting cancer cell proliferation.
as §2

[5] = tested on: CDK4/6; assay: Western blot of CDK4, CDK6 and phospho-Rb in SK-MEL-2 or A375 melanoma cells treated with degraders (Example 12, FIG. 11); conditions: SK-MEL-2 or A375 cells; 1 or 3 μM; 24 h
Protocol: as §1
as §2, with “The membrane was washed three times, 10 min each, with wash buffer (0.1% Tween in TBS) followed by incubation with secondary HRP conjugated antibody (1:5000 dilution) in 2.5% dry nonfat milk, 0.1% Tween in TBS for 1 h at room temperature. The membrane was washed three times, 10 min each, with wash buffer (0.1% Tween in TBS).” left out, “film. […]” for “film.”

[6] = tested on: CDK4/6; assay: Western blot of CDK4 and CDK6 in MCF7 breast cancer cells treated with degraders (Example 12, FIG. 10 A); conditions: 1 or 5 μM, 24 h
Protocol: as §1, §2, §3

[7] = tested on: A375 melanoma cells; assay: Crystal violet staining (clonogenic assay) of A375 melanoma cells (Example 13, FIG. 21); conditions: 0.03-3 μM, 11 days
Protocol: Cells were cultured for 7-11 days in the presence of different compounds. Media with compound was replenished every two days. At the end of the experiment, media was aspirated and viable cells were stained with 0.5% crystal violet dye.

[8] = tested on: A375 melanoma cells; assay: Bright field imaging of A375 melanoma cell proliferation (Example 13, FIG. 20); conditions: 1 or 2 μM, 7 days
[9] = tested on: V5-tagged CDK4 or V5-tagged CDK6; assay: Western blot of V5-tagged CDK4 or CDK6 ectopically expressed in 293H cells (Example 8); conditions: 1, 3 or 10 μM, 24 h
Protocol: Protein concentrations were determined by BCA from cell lysates and equal amounts of protein are loaded to a Bis-Tris 4-12% gel. Gels were run at 80 V for 4 h using 1× running buffer (25 mM Tris, pH 8.3, 1.92 M glycine, 0.1% SDS). Proteins were transferred to a nitrocellulose membrane for 2 h at 100 V using transfer buffer (25 mM Tris, pH 8.3, 1.92 M glycine, 20% methanol). Ponceau S staining (0.1% Ponceau S, 1% acetic acid) was used to confirm transfer of proteins to the membrane followed by blocking of the membrane for 30 min at room temperature using blocking buffer (5% dry nonfat milk, 0.1% Tween, 0.02% sodium azide in TBS). The blocked membrane is incubated with primary antibodies (1:1000 dilution) in blocking buffer at 4° C. overnight. When primary phosphor-antibodies were used, then the membrane is incubated with 5% BSA instead of milk. The membrane was washed three times, 10 min each, with wash buffer (0.1% Tween in TBS) followed by incubation with secondary HRP conjugated antibody (1:5000 dilution) in 2.5% dry nonfat milk, 0.1% Tween in TBS for 1 h at room temperature. The membrane was washed three times, 10 min each, with wash buffer (0.1% Tween in TBS). Membranes are incubated with ECL for 1 min and proteins are detected after exposure to a blue autoradiographic film.

T1 sequence (P11802 2-303): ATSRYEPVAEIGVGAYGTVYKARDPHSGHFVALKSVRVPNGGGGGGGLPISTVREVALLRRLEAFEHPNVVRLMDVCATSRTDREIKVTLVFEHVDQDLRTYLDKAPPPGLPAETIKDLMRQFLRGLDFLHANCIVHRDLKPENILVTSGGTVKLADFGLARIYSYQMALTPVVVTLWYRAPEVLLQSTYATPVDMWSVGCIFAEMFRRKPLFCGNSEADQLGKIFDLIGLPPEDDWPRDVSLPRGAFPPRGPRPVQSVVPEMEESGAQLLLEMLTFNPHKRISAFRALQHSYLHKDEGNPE

Row | concentrations with significant effects on CDK4 expression and Rb phosphorylation [2] | SMILES | efficacy in inhibiting both CDK4/6 expression and CDK4/6 activity (decreased Rb phosphorylation) ([1]; 1 or 3 μM) | suppression of CDK4 expression and inhibition of CDK4 activity (Rb phosphorylation) ([2]; 0.1-30 μM) | inhibition of Rb phosphorylation at high concentrations [3] | suppression of both CDK4/6 expression and CDK4/6 activity (summary) [4] | efficacy in inhibiting both CDK4/6 expression and CDK4/6 activity (decreased Rb phosphorylation) [5] | suppression of CDK4/6 expression [6] | inhibition of cancer cell proliferation compared with palbociclib (crystal violet staining) [7] | efficacy in inhibiting both CDK4/6 expression and CDK4/6 activity (decreased Rb phosphorylation) ([1]; 0.3 or 1 μM (FIG. 16 A), 1 or 3 μM (FIG. 16 B)) | inhibition of cancer cell proliferation compared with palbociclib (bright field imaging) [8] | expression of V5-tagged CDK4 and CDK6 [9]
1 | ≥ 0.3 µM | CC(=O)c1c(C)c2cnc(Nc3ccc(N4CCN(C(=O)CCCCCCC(=O)N[C@H](C(=O)N5C[C@H](O)C[C@H]5C(=O)NCc5ccc(-c6scnc6C)cc5)C(C)(C)C)CC4)cn3)nc2n(C2CCCC2)c1=O [XY019-106, (2S,4R)-1-((S)-2-(8-(4-(6-((6-acetyl-8-cyclopentyl-5-methyl-7-oxo-7,8-dihydropyrido[2,3-d]pyrimidin-2-yl)amino)pyridin-3-yl)piperazin-1-yl)-8-oxooctanamido)-3,3-dimethylbutanoyl)-4-hydroxy-N-(4-(4-methylthiazol-5-yl)benzyl)pyrrolidine-2-carboxamide] | efficacy of CDK4/6 degraders, particularly XY028-133, XY028-140, XY019-106 and XY028-003 | both suppresses CDK4 expression and inhibit CDK4 activity | inhibited Rb phosphorylation even when administered at high concentrations | especially effective in suppressing both CDK4/6 expression and CDK4/6 activity | efficacy of CDK4/6 degraders/disruptors, particularly XY019-106 and XY028-003 | especially effective in suppressing CDK4/6 expression even at 1 μM | – | – | – | –
2 | – | CC(=O)c1c(C)c2cnc(Nc3ccc(N4CCN(C(=O)CCCCCC(=O)N[C@H](C(=O)N5C[C@H](O)C[C@H]5C(=O)NCc5ccc(-c6scnc6C)cc5)C(C)(C)C)CC4)cn3)nc2n(C2CCCC2)c1=O [XY028-133, (2S,4R)-1-((S)-2-(7-(4-(6-((6-acetyl-8-cyclopentyl-5-methyl-7-oxo-7,8-dihydropyrido[2,3-d]pyrimidin-2-yl)amino)pyridin-3-yl)piperazin-1-yl)-7-oxoheptanamido)-3,3-dimethylbutanoyl)-4-hydroxy-N-(4-(4-methylthiazol-5-yl)benzyl)pyrrolidine-2-carboxamide] | efficacy of CDK4/6 degraders, particularly XY028-133, XY028-140, XY019-106 and XY028-003; also recorded: efficacy of CDK4/6 degraders, particularly XY028-133 and YX044-18 | – | – | especially effective in suppressing both CDK4/6 expression and CDK4/6 activity | – | – | more effective in inhibiting cancer cell proliferation than palbociclib at 1 and 3 μM | efficacy of CDK4/6 degraders, particularly XY028-133 | more effective in inhibiting cancer cell proliferation than palbociclib at the same concentration | –
3 | – | CN(C)C(=O)c1cc2cnc(Nc3ccc(N4CCNCC4)cn3)nc2n1C1CCCC1 [ribociclib] | – | – | – | – | – | – | – | – | – | upregulated the expression of V5-tagged CDK4 and CDK6
